Laboratory results as given in patent US20230113037A1 (Bayer Aktiengesellschaft, priority 2019, published 2023).
Where two headings read alike, the source gives them in different places.

Assays:
AHR [1] = target: T1, AHR (Homo sapiens, UniProt P35869); assay: In vitro assay 1: antagonism in human cell line (AHR transactivation, firefly luciferase reporter, kynurenic acid prestimulated); format: cell-based; details: AHR Antagonism Human IC50 [M]
T1 construct: U87 MG glioblastoma cells (ATCC #HTB-14) endogenously expressing AHR; endogenous in cells; host or cells: U87 MG glioblastoma cells (ATCC #HTB-14)
T1 sequence (P35869 11-848): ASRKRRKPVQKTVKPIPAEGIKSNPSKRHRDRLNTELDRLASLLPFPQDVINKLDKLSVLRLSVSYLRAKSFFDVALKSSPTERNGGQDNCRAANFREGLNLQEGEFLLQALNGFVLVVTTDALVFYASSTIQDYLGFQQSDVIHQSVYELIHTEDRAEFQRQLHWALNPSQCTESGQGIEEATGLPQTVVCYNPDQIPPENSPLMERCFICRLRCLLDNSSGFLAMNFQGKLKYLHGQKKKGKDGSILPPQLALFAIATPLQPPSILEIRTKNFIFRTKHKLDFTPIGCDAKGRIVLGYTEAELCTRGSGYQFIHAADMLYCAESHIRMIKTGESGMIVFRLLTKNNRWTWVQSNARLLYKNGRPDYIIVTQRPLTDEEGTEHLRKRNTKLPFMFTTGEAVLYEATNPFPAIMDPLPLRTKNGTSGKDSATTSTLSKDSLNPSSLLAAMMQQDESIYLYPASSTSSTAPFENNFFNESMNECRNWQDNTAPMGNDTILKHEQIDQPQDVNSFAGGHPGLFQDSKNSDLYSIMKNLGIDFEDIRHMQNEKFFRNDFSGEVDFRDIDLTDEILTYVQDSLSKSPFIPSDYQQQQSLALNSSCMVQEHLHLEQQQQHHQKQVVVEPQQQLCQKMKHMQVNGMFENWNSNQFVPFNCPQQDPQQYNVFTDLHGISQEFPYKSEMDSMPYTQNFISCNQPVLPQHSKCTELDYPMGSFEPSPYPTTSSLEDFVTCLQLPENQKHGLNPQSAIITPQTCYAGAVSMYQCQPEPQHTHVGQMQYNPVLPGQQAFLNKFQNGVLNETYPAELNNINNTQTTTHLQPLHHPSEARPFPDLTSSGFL
In short: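 U87 MG + DRE-firefly/constitutive-Renilla stable reporters; kynurenic acid prestim; dual-luc read; Renilla = tox; normalized vs pos/neg controls (pos: 150 μM KYNA + 5 μM staurosporine).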

AHR [2] = target: T2, AHR (Mus musculus, UniProt P30561); assay: In vitro assay 3: antagonism in mouse cell line (AHR transactivation, firefly luciferase reporter, kynurenic acid prestimulated); format: cell-based
T2 sequence (P30561 1-848 P471L/N533S/M589L): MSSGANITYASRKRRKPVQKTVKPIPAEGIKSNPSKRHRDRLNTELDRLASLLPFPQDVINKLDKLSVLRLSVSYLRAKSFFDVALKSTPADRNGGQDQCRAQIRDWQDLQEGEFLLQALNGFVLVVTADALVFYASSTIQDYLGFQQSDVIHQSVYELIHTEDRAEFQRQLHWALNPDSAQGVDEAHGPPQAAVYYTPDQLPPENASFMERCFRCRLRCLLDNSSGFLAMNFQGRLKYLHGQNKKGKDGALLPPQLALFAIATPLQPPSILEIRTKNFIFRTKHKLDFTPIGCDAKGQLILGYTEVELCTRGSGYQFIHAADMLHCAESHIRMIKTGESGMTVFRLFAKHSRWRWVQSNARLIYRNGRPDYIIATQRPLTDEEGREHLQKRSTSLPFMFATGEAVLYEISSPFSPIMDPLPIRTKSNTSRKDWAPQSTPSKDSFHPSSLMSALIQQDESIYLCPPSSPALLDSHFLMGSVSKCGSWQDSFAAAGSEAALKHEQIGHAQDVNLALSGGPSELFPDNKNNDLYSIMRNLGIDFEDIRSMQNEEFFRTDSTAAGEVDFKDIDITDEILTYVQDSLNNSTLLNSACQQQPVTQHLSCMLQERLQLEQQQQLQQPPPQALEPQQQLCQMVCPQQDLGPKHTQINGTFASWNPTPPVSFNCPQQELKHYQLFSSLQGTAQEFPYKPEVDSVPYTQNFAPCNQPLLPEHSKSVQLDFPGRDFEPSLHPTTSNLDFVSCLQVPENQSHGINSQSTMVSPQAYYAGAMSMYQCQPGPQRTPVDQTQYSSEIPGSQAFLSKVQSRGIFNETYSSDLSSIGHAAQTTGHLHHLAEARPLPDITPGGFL
In short: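 Cells were first stimulated with kynurenic acid, then exposed to test compound, after which firefly luciferase from a DRE-containing AHR reporter was read out. Signal was scaled between positive and negative controls. Cells not given kynurenic acid provided the inhibition reference.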

[3] = mouse Hepa 1c1c7 cells, 200 μM kynurenic acid, 20 hours, read-out: AHR Antagonism Mouse IC50
[4] = Hepa 1c1c7 cells, 200 μM kynurenic acid, 20 hours, firefly luciferase reporter, read-out: AHR Antagonism Mouse IC50

COc1cccc(-c2nc3c4ccccc4nc(N[C@@H](C(N)=O)c4ccccc4)n3n2)c1 [Example 89, (2R)-2-{[2-(3-methoxyphenyl)[1,2,4]triazolo[1,5-c]quinazolin-5-yl]amino}-2-phenylacetamide] was tested, and the IC50 (AHR [1]) was 1.29e-08 M and the IC50 (AHR [2]; [3]) was 12.8 nM.

Cn1cc(-c2nc3c4ccccc4nc(N[C@@H]4CCCCNC4=O)n3n2)cn1 [Example 12, (3R)-3-{[2-(1-methyl-1H-pyrazol-4-yl)[1,2,4]triazolo[1,5-c]quinazolin-5-yl]amino}azepan-2-one] was tested, and the IC50 (AHR [1]) was 1.31e-08 M and the IC50 (AHR [2]; [3]) was 8.31 nM.

With COc1ccc(-c2nc3c4ccc(C(F)(F)F)cc4nc(N[C@@H]4CNCCNC4=O)n3n2)cc1 [Example 273, (6R)-6-{[2-(4-methoxyphenyl)-8-(trifluoromethyl)[1,2,4]triazolo[1,5-c]quinazolin-5-yl]amino}-1,4-diazepan-5-one] the IC50 (AHR [1]) was greater than 2e-05 M and the IC50 (AHR [2]; [3]) was 4590 nM.

Cn1cc(-c2nc3c4ccccc4nc(NC4CCNC4=O)n3n2)cn1 (stereo not drawn) [Example 15, 3-{[2-(1-methyl-1H-pyrazol-4-yl)[1,2,4]triazolo[1,5-c]quinazolin-5-yl]amino}pyrrolidin-2-one] showed an IC50 (AHR [1]) of 1.78e-05 M and an IC50 (AHR [2]; [3]) of 7820 nM.

COc1ccc(-c2nc3c4cccc(C5(C)CC5)c4nc(N[C@@H]4CCCCNC4=O)n3n2)cc1 [Example 399, (3R)-3-{[2-(4-methoxyphenyl)-7-(1-methylcyclopropyl)[1,2,4]triazolo[1,5-c]quinazolin-5-yl]amino}azepan-2-one] gave an IC50 (AHR [1]) of 1.85e-08 M and an IC50 (AHR [2]; [3]) of 55.7 nM.

Work on COc1ccc(-c2nc3c4cccc(Br)c4nc(N[C@@H]4CCCCNC4=O)n3n2)c(OC(F)(F)F)c1 [Example 565, (3R)-3-({7-bromo-2-[4-methoxy-2-(trifluoromethoxy)phenyl][1,2,4]triazolo[1,5-c]quinazolin-5-yl}amino)azepan-2-one] yielded an IC50 (AHR [1]) of 8.44e-09 M and an IC50 (AHR [2]; [3]) of 3.33 nM.

Molecule CC[C@@H](Nc1nc2ccccc2c2nc(-c3ccc(OC)cc3)nn12)C(N)=O [Example 379, (2R)-2-{[2-(4-methoxyphenyl)[1,2,4]triazolo[1,5-c]quinazolin-5-yl]amino}butanamide] has an IC50 (AHR [1]) of 7.6e-10 M and an IC50 (AHR [2]; [3]) of 0.993 nM.

Molecule O=C1NCCCC[C@H]1Nc1nc2ccccc2c2nc(-c3ccc(O)cc3F)nn12 [Example 634, (3R)-3-{[2-(2-fluoro-4-hydroxyphenyl)[1,2,4]triazolo[1,5-c]quinazolin-5-yl]amino}azepan-2-one] has an IC50 (AHR [1]) of 9.09e-08 M and an IC50 (AHR [2]; [3]) of 206 nM.

Molecule Cn1cc(-c2nc3c4cccc(Br)c4nc(N[C@@H]4CCCCNC4=O)n3n2)cn1 [Example 212, (3R)-3-{[7-bromo-2-(1-methyl-1H-pyrazol-4-yl)[1,2,4]triazolo[1,5-c]quinazolin-5-yl]amino}azepan-2-one] has an IC50 (AHR [1]) of 9.71e-10 M and an IC50 (AHR [2]; [3]) of 2.49 nM.

O=C1NCCCC[C@H]1Nc1nc2ccccc2c2nc(-c3cccc(Cl)c3Cl)nn12 [Example 196, (3R)-3-{[2-(2,3-dichlorophenyl)[1,2,4]triazolo[1,5-c]quinazolin-5-yl]amino}azepan-2-one] gave an IC50 (AHR [1]) of 4.09e-09 M and an IC50 (AHR [2]; [3]) of 1.11 nM.

Molecule Cn1cc(-c2nc3c4cccc(C(F)(F)F)c4nc(NC4C(=O)NCC4(C)C)n3n2)cn1 (single isomer, unassigned; (-)) [Example 729, (−)-4,4-dimethyl-3-{[2-(1-methyl-1H-pyrazol-4-yl)-7-(trifluoromethyl)[1,2,4]triazolo[1,5-c]quinazolin-5-yl]amino}pyrrolidin-2-one] has an IC50 (AHR [1]) of 3.6e-06 M and an IC50 (AHR [2]; [3]) of 161 nM.

Work on Cc1n[nH]cc1-c1nc2c3cccc(C(F)(F)F)c3nc(N[C@@H]3CCCCNC3=O)n2n1 [Example 746, (3R)-3-{[2-(3-methyl-1H-pyrazol-4-yl)-7-(trifluoromethyl)[1,2,4]triazolo[1,5-c]quinazolin-5-yl]amino}azepan-2-one] yielded an IC50 (AHR [1]) of 7.48e-09 M and an IC50 (AHR [2]; [3]) of 45.6 nM.

Work on CCn1cc(-c2nc3c4cccc(SC)c4nc(N[C@@H]4CCCCNC4=O)n3n2)c(C)n1 [Example 772, (3R)-3-{[2-(1-ethyl-3-methyl-1H-pyrazol-4-yl)-7-(methylsulfanyl)[1,2,4]triazolo[1,5-c]quinazolin-5-yl]amino}azepan-2-one] yielded an IC50 (AHR [1]) of 3.61e-09 M and an IC50 (AHR [2]; [3]) of 51.3 nM.

COc1ccc(-c2nc3c4cccc(C5CC5)c4nc(N[C@@H]4CCCCNC4=O)n3n2)cc1 [Example 206, (3R)-3-{[7-cyclopropyl-2-(4-methoxyphenyl)[1,2,4]triazolo[1,5-c]quinazolin-5-yl]amino}azepan-2-one] showed an IC50 (AHR [1]) of 9.97e-09 M and an IC50 (AHR [2]; [3]) of 7.88 nM.

CS(=O)(=O)c1ccc(-c2nc3c4cccc(Br)c4nc(N[C@H]4CCCCNC4=O)n3n2)cc1 [Example 680, (3S)-3-({7-bromo-2-[4-(methanesulfonyl)phenyl][1,2,4]triazolo[1,5-c]quinazolin-5-yl}amino)azepan-2-one] gave an IC50 (AHR [1]) of 3.93e-08 M and an IC50 (AHR [2]; read-out: AHR Antagonism Mouse IC50, mouse Hepa 1c1c7 cells, 200 μM kynurenic acid, 20 hours) of 35.6 nM.

In the case of CC[C@@H](Nc1nc2ccccc2c2nc(-c3cccc(OC)c3)nn12)C(N)=O [Example 88, (2R)-2-{[2-(3-methoxyphenyl)[1,2,4]triazolo[1,5-c]quinazolin-5-yl]amino}butanamide], the IC50 (AHR [1]) is reported as 2.11e-09 M and the IC50 (AHR [2]; [3]) is reported as 0.437 nM.

COc1ccc(-c2nc3c4cccc(Br)c4nc(N[C@@H](C(=O)N4CCOCC4)C(C)C)n3n2)cc1 [Example 925, (2R)-2-{[7-bromo-2-(4-methoxyphenyl)[1,2,4]triazolo[1,5-c]quinazolin-5-yl]amino}-3-methyl-1-(morpholin-4-yl)butan-1-one] was tested, and the IC50 (AHR [1]; firefly luciferase reporter) was 6.08e-09 M and the IC50 (AHR [2]; [4]) was 4.14 nM.

With C[C@@H](Nc1nc2c(C(F)(F)F)cccc2c2nc(-c3cnn(C)c3)nn12)C(=O)N(C)CCN(C)C [Example 877, N-[2-(dimethylamino)ethyl]-N-methyl-N^2-[2-(1-methyl-1H-pyrazol-4-yl)-7-(trifluoromethyl)[1,2,4]triazolo[1,5-c]quinazolin-5-yl]-D-alaninamide] the IC50 (AHR [1]; firefly luciferase reporter) was 8.72e-08 M and the IC50 (AHR [2]; [4]) was 160 nM.

For Cn1cc(-c2nc3c4cccc(S(C)(=O)=O)c4nc(N[C@@H]4CCCCNC4=O)n3n2)cn1 [Example 858, (3R)-3-{[7-(methanesulfonyl)-2-(1-methyl-1H-pyrazol-4-yl)[1,2,4]triazolo[1,5-c]quinazolin-5-yl]amino}azepan-2-one], the IC50 (AHR [1]; firefly luciferase reporter) was 1.07e-07 M and the IC50 (AHR [2]; [4]) was 1560 nM.

CNCCNC(=O)[C@@H](C)Nc1nc2ccccc2c2nc(-c3ccc(OC)cc3)nn12 [Example 990, N^2-[2-(4-methoxyphenyl)[1,2,4]triazolo[1,5-c]quinazolin-5-yl]-N-[2-(methylamino)ethyl]-D-alaninamide-hydroxy chloride (1/1)] was tested, and the IC50 (AHR [1]; firefly luciferase reporter) was 4.29e-08 M and the IC50 (AHR [2]; [4]) was 73.6 nM.

COC(=O)[C@H](Nc1nc2c(Br)cccc2c2nc(-c3cnn(C)c3)nn12)C(C)C [Example 868, methyl N-[7-bromo-2-(1-methyl-1H-pyrazol-4-yl)[1,2,4]triazolo[1,5-c]quinazolin-5-yl]-D-valinate] gave an IC50 (AHR [1]; firefly luciferase reporter) of 6.28e-09 M and an IC50 (AHR [2]; [4]) of 6.29 nM.
